# Source: ChEMBL document CHEMBL1141107, “A novel series of non-carboxylic acid, non-hydantoin inhibitors of aldose reductase with potent oral activity in diabetic rat models: 6-(5-chloro-3-methylbenzofuran-2-sulfonyl)-2H-pyridazin-3-one and congeners” (J Med Chem, 2005)
# pIC50: −log10 of the molar value.
# How the values were obtained:
# [1] = biological target: Aldo-keto reductase family 1 member B1 (Homo sapiens, UniProt P15121); test: In vitro inhibitroy concentration against Aldose reductase incubated at 24 degree C for 15 minutes in pH 7.0
# [2] = tested on: Rattus norvegicus; test: Inhibition of fructose accumulation in diabetic rat after oral gavage administration incubated at RT for 60 minutes in pH 4.5 by acute test dosed at 1 mg/kg; assay type: functional; conditions: 1 h
# [3] = tested on: Rattus norvegicus; test: Inhibition of fructose accumulation in diabetic rat after oral gavage administration incubated at RT for 60 minutes in pH 4.5 by acute test dosed at 3 mg/kg; assay type: functional; conditions: 1 h
# [4] = tested on: Rattus norvegicus; test: Inhibition of fructose accumulation in diabetic rat after oral gavage administration incubated at RT for 60 minutes in pH 4.5 by acute test dosed at 10 mg/kg; assay type: functional; conditions: 1 h
# [5] = tested on: Rattus norvegicus; test: Inhibition of fructose accumulation in diabetic rat after oral gavage administration, pH 4.5 by chronic test dosed at 1 mg/kg; assay type: functional
# [6] = tested on: Rattus norvegicus; test: Inhibition of fructose accumulation in diabetic rat after oral gavage administration, pH 4.5 by chronic test dosed at 3 mg/kg; assay type: functional
# [7] = tested on: Rattus norvegicus; test: Inhibition of fructose accumulation in diabetic rat after oral gavage administration, pH 4.5 by chronic test dosed at 10 mg/kg; assay type: functional
# [8] = organism: Rattus norvegicus; test: Dose required for inhibition of sorbitol accumulation in diabetic rat by acute test; assay type: functional
# [9] = organism: Rattus norvegicus; test: Dose required for sorbitol accumulation in diabetic rat by chronic test; assay type: functional
# [10] = tested on: Rattus norvegicus; test: Inhibition of sorbitol accumulation in diabetic rat by acute test dosed at 1 mg/kg; assay type: functional
# [11] = tested on: Rattus norvegicus; test: Inhibition of sorbitol accumulation in diabetic rat by acute test dosed at 3 mg/kg; assay type: functional
# [12] = tested on: Rattus norvegicus; test: Inhibition of sorbitol accumulation in diabetic rat by acute test dosed at 10 mg/kg; assay type: functional
# [13] = tested on: Rattus norvegicus; test: Dose required for fructose accumulation in diabetic rat after oral gavage administration incubated at RT for 60 minutes in pH 4.5 by acute test; assay type: functional
# [14] = tested on: Rattus norvegicus; test: Inhibition of sorbitol accumulation in diabetic rat by chronic test dosed at 1 mg/kg; assay type: functional
# [15] = tested on: Rattus norvegicus; test: Inhibition of sorbitol accumulation in diabetic rat by chronic test dosed at 3 mg/kg; assay type: functional
# [16] = tested on: Rattus norvegicus; test: Inhibition of sorbitol accumulation in diabetic rat by chronic test dosed at 10 mg/kg; assay type: functional
# [17] = tested on: Rattus norvegicus; test: Inhibition of fructose accumulation in diabetic rat after oral gavage administration, pH 4.5 by chronic test; assay type: functional
# [18] = organism: Rattus norvegicus; test: Inhibition of sorbitol accumulation in diabetic rat by chronic test; assay type: functional
# [19] = tested on: Rattus norvegicus; test: Inhibition of fructose accumulation in diabetic rat after oral gavage administration incubated at RT for 60 minutes in pH 4.5 by acute test dosed at 5 mg/kg; assay type: functional; conditions: 1 h
# [20] = tested on: Rattus norvegicus; test: Inhibition of fructose accumulation in diabetic rat after oral gavage administration incubated at RT for 60 minutes in pH 4.5 by acute test dosed at 20 mg/kg; assay type: functional; conditions: 1 h
# [21] = tested on: Rattus norvegicus; test: Inhibition of fructose accumulation in diabetic rat after oral gavage administration, pH 4.5 by chronic test dosed at 5 mg/kg; assay type: functional
# [22] = tested on: Rattus norvegicus; test: Inhibition of fructose accumulation in diabetic rat after oral gavage administration, pH 4.5 by chronic test dosed at 20 mg/kg; assay type: functional
# [23] = tested on: Rattus norvegicus; test: Inhibition of sorbitol accumulation in diabetic rat by acute test dosed at 5 mg/kg; assay type: functional
# [24] = tested on: Rattus norvegicus; test: Inhibition of sorbitol accumulation in diabetic rat by acute test dosed at 20 mg/kg; assay type: functional
# [25] = tested on: Rattus norvegicus; test: Inhibition of sorbitol accumulation in diabetic rat by chronic test dosed at 5 mg/kg; assay type: functional
# [26] = tested on: Rattus norvegicus; test: Inhibition of sorbitol accumulation in diabetic rat by chronic test dosed at 20 mg/kg; assay type: functional
# [27] = organism: Rattus norvegicus; test: Inhibition of sorbitol accumulation in diabetic rat by acute test; assay type: functional
# [28] = tested on: Rattus norvegicus; test: Inhibition of sorbitol accumulation in diabetic rat by acute test dosed at 30 mg/kg; assay type: functional
# [29] = tested on: Rattus norvegicus; test: Inhibition of sorbitol accumulation in diabetic rat by chronic test does at 20 mg/kg; assay type: functional
# [30] = tested on: Rattus norvegicus; test: Inhibition of fructose accumulation in diabetic rat after oral gavage administration incubated at RT for 60 minutes in pH 4.5 by acute test; dosed at 10 mg/kg; assay type: functional; conditions: 1 h
# [31] = tested on: Rattus norvegicus; test: Inhibition of fructose accumulation in diabetic rat after oral gavage administration incubated at RT for 60 minutes in pH 4.5 by acute test; dosed at 20 mg/kg; assay type: functional; conditions: 1 h
# [32] = tested on: Rattus norvegicus; test: Inhibition of sorbitol accumulation in diabetic rat by acute test; dosed at 10 mg/kg; assay type: functional
# [33] = tested on: Rattus norvegicus; test: Inhibition of sorbitol accumulation in diabetic rat by acute test; dosed at 20 mg/kg; assay type: functional
# [34] = tested on: Rattus norvegicus; test: Inhibition of fructose accumulation in diabetic rat after oral gavage administration incubated at RT for 60 minutes in pH 4.5 by chronic test 10 mg/kg; conditions: 1 h
# [35] = tested on: Rattus norvegicus; test: Inhibition of fructose accumulation in diabetic rat after oral gavage administration incubated at RT for 60 minutes in pH 4.5 by chronic test 30 mg/kg; conditions: 1 h
# [36] = Maximum plasma concentration in rat was determined; assay type: ADME, organism-based
# [37] = tested on: Rattus norvegicus; test: Dose required for fructose accumulation in diabetic rat after oral gavage administration, pH 4.5 by chronic test; assay type: functional
# [38] = organism: Rattus norvegicus; test: Dose required for sorbitol accumulation in diabetic rat by chronic test
# [39] = tested on: Rattus norvegicus; test: Dose required for fructose accumulation in diabetic rat after oral gavage administration incubated at RT for 60 minutes in pH 4.5 by acute test; conditions: 1 h
# [40] = tested on: Rattus norvegicus; test: Inhibition of fructose accumulation in diabetic rat after oral gavage administration incubated at RT for 60 minutes in pH 4.5 by acute test dosed at 25 mg/kg; assay type: functional; conditions: 1 h
# [41] = tested on: Rattus norvegicus; test: Inhibition of fructose accumulation in diabetic rat after oral gavage administration incubated at RT for 60 minutes in pH 4.5 by acute test dosed at 50 mg/kg; assay type: functional; conditions: 1 h
# [42] = tested on: Rattus norvegicus; test: Dose required for fructose accumulation in diabetic rat after oral gavage administration incubated at RT for 60 minutes in pH 4.5 by acute; assay type: functional
# [43] = tested on: Rattus norvegicus; test: Inhibition of sorbitol accumulation in diabetic rat by acute test dosed at 25 mg/kg; assay type: functional
# [44] = tested on: Rattus norvegicus; test: Inhibition of sorbitol accumulation in diabetic rat by acute test dosed at 50 mg/kg; assay type: functional
# [45] = tested on: Rattus norvegicus; test: Inhibition of sorbitol accumulation in diabetic rat by acute test dosed at 60 mg/kg; assay type: functional
smiles,measurement,setting,value
Cc1c(S(=O)(=O)c2ccc(O)nn2)oc2ccc(F)cc12,pIC50,[1],8.52
same,inhibition in vivo at 1 mg/kg,[2],11%
same,inhibition in vivo at 3 mg/kg,[3],42%
same,inhibition in vivo at 10 mg/kg,[4],62%
same,inhibition in vivo at 1 mg/kg,[5],17%
same,inhibition in vivo at 3 mg/kg,[6],64%
same,inhibition in vivo at 10 mg/kg,[7],90%
same,ED50,[8],1.2 mg/kg
same,ED50,[9],1 mg/kg
same,inhibition in vivo at 1 mg/kg,[10],47%
same,inhibition in vivo at 3 mg/kg,[11],66%
same,inhibition in vivo at 10 mg/kg,[12],84%
same,ED50,[13],5.8 mg/kg
same,inhibition in vivo at 1 mg/kg,[14],52%
same,inhibition in vivo at 3 mg/kg,[15],86%
same,inhibition in vivo at 10 mg/kg,[16],100%
CC(C)c1c(S(=O)(=O)c2ccc(O)nn2)oc2ccc(Cl)cc12,pIC50,[1],7.04
same,Inhibition,[17],14%
same,Inhibition,[18],48%
O=S(=O)(c1cc(Cl)cc(Cl)c1)c1ccc(O)nn1,inhibition in vivo at 5 mg/kg,[19],32%
same,inhibition in vivo at 20 mg/kg,[20],49%
same,inhibition in vivo at 5 mg/kg,[21],30%
same,inhibition in vivo at 20 mg/kg,[22],38%
same,inhibition in vivo at 5 mg/kg,[23],68%
same,inhibition in vivo at 20 mg/kg,[24],91%
same,inhibition in vivo at 5 mg/kg,[25],63%
same,inhibition in vivo at 20 mg/kg,[26],73%
O=S(=O)(c1ccccc1)c1ccc(S(=O)(=O)c2ccccc2)nn1,Inhibition,[27],58%
same,Inhibition,[18],50%
O=c1ccc(S(=O)(=O)c2c(Cl)cccc2Cl)n[nH]1,pIC50,[1],7.30
same,inhibition in vivo at 30 mg/kg,[28],81%
same,inhibition in vivo at 20 mg/kg,[29],75%
O=c1ccc(S(=O)(=O)c2cc(Cl)ccc2Cl)n[nH]1,pIC50,[1],7.14
same,inhibition in vivo at 10 mg/kg,[30],36%
same,inhibition in vivo at 20 mg/kg,[31],67%
same,inhibition in vivo at 10 mg/kg,[32],65%
same,inhibition in vivo at 20 mg/kg,[33],79%
O=c1ccc(S(=O)(=O)c2cccc(F)c2F)n[nH]1,pIC50,[1],6.41
same,inhibition in vivo at 10 mg/kg,[34],50%
same,inhibition in vivo at 30 mg/kg,[35],81%
Cc1c(S(=O)(=O)c2ccc(=O)[nH]n2)oc2ccc(Cl)cc12,pIC50,[1],9.00
same,Cmax,[36],9000 ng/mL
same,ED50,[8],0.2 mg/kg
same,ED50,[13],0.8 mg/kg
Cc1c(S(=O)(=O)c2ccc(O)nn2)oc2ccc(C(F)(F)F)cc12,pIC50,[1],8.30
same,inhibition in vivo at 3 mg/kg,[3],79%
same,ED50,[37],1 mg/kg
same,inhibition in vivo at 1 mg/kg,[5],54%
same,inhibition in vivo at 3 mg/kg,[6],81%
same,inhibition in vivo at 10 mg/kg,[7],100%
same,ED50,[8],1.3 mg/kg
same,inhibition in vivo at 1 mg/kg,[10],43%
same,inhibition in vivo at 3 mg/kg,[11],91%
same,inhibition in vivo at 10 mg/kg,[12],101%
same,inhibition in vivo at 1 mg/kg,[14],75%
same,inhibition in vivo at 3 mg/kg,[15],95%
same,inhibition in vivo at 10 mg/kg,[16],102%
same,ED50,[38],< 1 mg/kg
same,ED50,[39],2 mg/kg
O=S(=O)(c1ccccc1)c1ccc(O)nn1,inhibition in vivo at 10 mg/kg,[4],14%
same,inhibition in vivo at 25 mg/kg,[40],49%
same,inhibition in vivo at 50 mg/kg,[41],74%
same,ED50,[8],15 mg/kg
same,inhibition in vivo at 10 mg/kg,[12],40%
same,ED50,[42],25 mg/kg
same,inhibition in vivo at 25 mg/kg,[43],73%
same,inhibition in vivo at 50 mg/kg,[44],95%
O=c1ccc(S(=O)(=O)Cc2ccccc2)n[nH]1,pIC50,[1],6.22
same,inhibition in vivo at 60 mg/kg,[45],73%
